{
  "source": "patent US11851413B1",
  "about": "“1,3-benzothiazol-2-yl-N'-[(naphthalene-1-carbonyl)oxy]ethanimidamide as an antitumor and antimicrobial compound” (KING FAISAL UNIVERSITY, priority 2023, dated 2023)",
  "key": {"[1]": {"test_system": "human prostate cancer cells (PC3)", "test": "Cytotoxicity by SRB assay, PC3 cells", "format": "cell-based", "conditions": "0.01 μM to 100 μM, 72 h", "method": "(§1) The human prostate cancer cells (PC3) and human osteosarcoma cells (MG-63) were obtained from Nawah Scientific Inc. (Mokatam, Cairo, Egypt) and cultured in DMEM (Dulbecco's modified eagle's medium), Gibco, USA, supplemented with fetal bovine serum (FBS) at a concentration of 10% and 100 U/mL of penicillin and streptomycin (PS). The Cells were incubated at 37° C. in a humidified environment that contained 5% CO2. Cells were seeded in 96-well plates as aliquots of 100 μL cell suspension and incubated in a complete media for 24 h. afterward, cells were treated with N′-(1-naphthoyloxy)-2-(benzo[d]thiazol-2-yl)acetimidamide at diverse concentrations ranging from 0.01 μM to 100 μM for 72 h. Then, cells were fixed at 4° C. for one hour with 150 μL of 10% trichloroacetic acid (TCA). After washing the cells five times with distilled water, 70 μL of sulforhodamine (SRB) solution (0.4% w/v) was added and incubated for 10 min at room temperature in a dark place. […] Then, 150 μL of Tris pH 10.5 (10 mM) was added, and the absorbance was measured at 540 nm using a BMG LABTECH®-FLUOstar Omega microplate reader (Ortenberg, Germany). Half maximal inhibitory concentrations (IC50) values were calculated for each experiment using GraphPad Prism 6 software. […] The inhibition was calculated using the following equation: Inhibition%=100−Average Viability"}, "[2]": {"test_system": "human osteosarcoma cells (MG-63)", "test": "Cytotoxicity by SRB assay, MG-63 cells", "format": "cell-based", "conditions": "0.01 μM to 100 μM, 72 h", "method": "as §1"}},
  "data": [
    {"smiles": "N/C(Cc1nc2ccccc2s1)=N\\OC(=O)c1cccc2ccccc12", "note": "[1,3-benzothiazol-2-yl-N′-[(naphthalene-1-carbonyl)oxy]ethanimidamide]", "values": [
      {"measurement": "antiproliferative activity against prostate cancer cells (PC3)", "setting": "[1]", "value": "excellent antiproliferative activities"},
      {"measurement": "antiproliferative activity against osteosarcoma (MG-63) cells", "setting": "[2]", "value": "excellent antiproliferative activities"},
      {"measurement": "melting point", "value": "191 to 193", "unit": "°C"}
    ]}
  ]
}
